From ChEMBL document CHEMBL5321209, “Design, synthesis of novel benzimidazole derivatives as ENL inhibitors suppressing leukemia cells viability via downregulating the expression of MYC” (Eur J Med Chem, 2023)
Blank lines part the entries; values can stand above or below the molecule they belong to. Activity calls are given as the source filed them. No cut-off for these calls is given here.

Assays:
MOLM-13 [1] = assay: Antiproliferative activity against human MOLM-13 cells assessed as inhibition of cell growth measured after 72 hrs by Cell Titer-Glo luminescent assay; assay type: functional, cell-based; details: MOLM-13, 72 h
[2] = target: T1, Protein ENL (Homo sapiens) (UniProt Q03111); details: dose 111.0 nM, time 45.0 min
T1 sequence (whole entry): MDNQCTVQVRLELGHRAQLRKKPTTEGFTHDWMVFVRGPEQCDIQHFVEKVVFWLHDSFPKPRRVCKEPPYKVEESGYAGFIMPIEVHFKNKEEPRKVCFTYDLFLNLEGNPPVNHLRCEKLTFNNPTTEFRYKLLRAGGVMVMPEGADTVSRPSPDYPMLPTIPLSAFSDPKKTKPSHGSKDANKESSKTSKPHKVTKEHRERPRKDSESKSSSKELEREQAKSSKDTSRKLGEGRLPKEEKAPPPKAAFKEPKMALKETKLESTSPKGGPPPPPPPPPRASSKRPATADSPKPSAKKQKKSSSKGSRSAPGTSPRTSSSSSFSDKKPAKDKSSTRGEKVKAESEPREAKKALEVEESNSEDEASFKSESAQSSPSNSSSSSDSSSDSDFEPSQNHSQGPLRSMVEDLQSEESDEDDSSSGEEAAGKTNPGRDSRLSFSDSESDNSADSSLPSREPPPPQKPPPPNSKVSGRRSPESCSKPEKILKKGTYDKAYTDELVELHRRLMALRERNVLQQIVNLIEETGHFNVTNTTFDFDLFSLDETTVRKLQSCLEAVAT

MV4-11 = assay: cells; details: Homo sapiens, MV4-11, 72 h
Description: Antiproliferative activity against human MV4-11 cells assessed as inhibition of cell growth measured after 72 hrs by Cell Titer-Glo luminescent assay

[3] = target: T1, Protein ENL (Homo sapiens); details: dose 333.0 nM, time 45.0 min
Protein ENL [4] = target: T2, Protein ENL (Homo sapiens, UniProt Q03111); assay: Inhibition of C-terminal 6xHis-tagged ENL YEATS domain (1 to 148 residues) (unknown origin) expressed in Escherichia coli BL21(DE3) cells using biotin-H3K27ace as substrate incubated for 45 mins by alpha screen assay
T2 sequence (Q03111 whole entry): T1 sequence (whole entry)

[5] = target: T1, Protein ENL (Homo sapiens); details: dose 50.0 µM
[6] = target: T1, Protein ENL (Homo sapiens); details: dose 6.3 µM
Description: Binding affinity to C-terminal 6xHis-tagged ENL YEATS domain (1 to 148 residues) (unknown origin) expressed in Escherichia coli BL21(DE3) cells assessed as thermal stability by measuring change in melting temperature at 6.3 uM by SYPRO dye-based thermal shift assay

MOLM-13 [7] = assay: Potency index, ratio of SGC-iMLLT IC50 to test compound IC50 for antiproliferative activity against human MOLM-13 cells; assay type: functional
[8] = target: T1, Protein ENL (Homo sapiens); details: dose 25.0 µM
[9] = target: T1, Protein ENL (Homo sapiens); details: dose 12.5 µM
Description: Binding affinity to C-terminal 6xHis-tagged ENL YEATS domain (1 to 148 residues) (unknown origin) expressed in Escherichia coli BL21(DE3) cells assessed as thermal stability by measuring change in melting temperature at 12.5 uM by SYPRO dye-based thermal shift assay

Protein ENL [10] = target: T2, Protein ENL; assay: Binding affinity to ENL YEATS domain (unknown origin) assessed as dissociation constant by ITC assay
Protein ENL [11] = target: T2, Protein ENL; assay: Inhibition of C-terminal ENL YEATS domain (unknown origin) (M1 to A148 residues) using biotinylated peptide as substrate by alpha screen assay
Protein ENL [12] = target: T2, Protein ENL; assay: Binding affinity to C-terminal ENL YEATS domain (unknown origin) (M1 to A148 residues) assessed as dissociation constant by ITC assay
[13] = Downregulation of MYC gene expression in human MOLM-13 cells assessed as decrease in fold change at 5 uM for 72 hrs by RT-PCR method relative to JQ-1; assay type: functional
[14] = Tmax in BALB/c mouse at 30 mg/kg, po measured after 0.5 to 24 hrs by LC-MS/MS assay; assay type: ADME, organism-based; details: in vivo, time 0.5-24 hrs
[15] = MRT (0 to infinity) in BALB/c mouse at 30 mg/kg, po measured after 0.5 to 24 hrs by LC-MS/MS assay; assay type: ADME, organism-based; details: in vivo, time 0.5-24 hrs
Protein ENL [16] = target: T2, Protein ENL; assay: Binding affinity to C-terminal 6xHis-tagged ENL YEATS domain (1 to 148 residues) (unknown origin) expressed in Escherichia coli BL21(DE3) cells assessed as dissociation constant by SPR analysis
[17] = Cytotoxicity against HUVEC-C incubated for 72 hrs by Cell Titer-Glo luminescent assay; assay type: toxicity, cell-based; details: human
[18] = target: YEATS domain-containing protein 4 (Homo sapiens) (UniProt O95619); assay: Binding affinity recombinant GAS41 YEATS domain (15 to 159 residues) (unknown origin) expressed in Escherichia coli BL21(DE3) cells by SPR assay
Chain of YEATS domain-containing protein 4 (Homo sapiens) (O95619 whole entry, the tested form may be a part): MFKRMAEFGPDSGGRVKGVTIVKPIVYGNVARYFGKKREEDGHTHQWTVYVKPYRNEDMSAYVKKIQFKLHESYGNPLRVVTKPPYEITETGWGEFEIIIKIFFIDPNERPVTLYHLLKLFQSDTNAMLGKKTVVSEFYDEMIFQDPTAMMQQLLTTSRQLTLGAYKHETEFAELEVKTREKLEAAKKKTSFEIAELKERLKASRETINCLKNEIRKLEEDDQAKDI

[19] = Cmax in BALB/c mouse at 30 mg/kg, po measured after 0.5 to 24 hrs by LC-MS/MS assay; assay type: ADME, organism-based; parameters: dose 30 mg/kg, time 0.5-24 hrs, route po; details: in vivo
[20] = AUC (0 to infinity) in BALB/c mouse at 30 mg/kg, po measured after 0.5 to 24 hrs by LC-MS/MS assay; assay type: ADME, organism-based; parameters: time lower 0.5 hrs, dose 30 mg/kg, time upper 24 hrs, route po; details: in vivo
[21] = Downregulation of MYC mRNA level in human MOLM-13 cells at 5 uM incubated for 72 hrs by RT-PCR method relative to control; assay type: functional
MRC5 = assay: Cytotoxicity against human MRC5 cells incubated for 72 hrs by Cell Titer-Glo luminescent assay; assay type: toxicity, cell-based; details: mrc5, 72 h
[22] = AUC (0 to t) in BALB/c mouse at 30 mg/kg, po measured after 0.5 to 24 hrs by LC-MS/MS assay; assay type: ADME, organism-based; parameters: dose 30 mg/kg, time 0.5-24 hrs, route po; details: in vivo
[23] = Half life in BALB/c mouse at 30 mg/kg, po measured after 0.5 to 24 hrs by LC-MS/MS assay; assay type: ADME, organism-based; details: in vivo, time 0.5-24 hrs
[24] = Downregulation of MYC gene expression in human MOLM-13 cells assessed as fold increase at 5 uM incubated for 72 hrs in presence of JQ-1 by RT-PCR method; assay type: functional
[25] = target: YEATS domain-containing protein 4 (Homo sapiens) (UniProt O95619); assay: Binding affinity recombinant GAS41 YEATS domain (15 to 159 residues) (unknown origin) assessed as thermal stability

IC50 (MOLM-13 [1]): > 100000 nM
inhibition [2]: 79.5%
IC50 (MV4-11): > 100000 nM
inhibition [3]: 98.5%
IC50 (Protein ENL [4]): 22 nM
Compound: C[C@H]1CCCN1Cc1nc2cc(NC(=O)N3C(CO)C(O)C(O)C3CO)ccc2[nH]1 (stereo not given in full)

inhibition [2]: 98.3%
inhibition [3]: 100%
IC50 (Protein ENL [4]): 18.9 nM
Compound: CCn1ncc2cc(C(=O)Nc3ccc4[nH]c(CN5CCC[C@@H]5C)nc4c3)ccc21

IC50 (MOLM-13 [1]): 37900 nM
ΔTm [5]: 4.9 °C
ΔTm [6]: 1.8 °C
inhibition [2]: 99.1%
ΔTm [8]: 3.9 °C
IC50 (MV4-11): 51400 nM
inhibition [3]: 99.9%
IC50 (Protein ENL [4]): 10.7 nM
ΔTm [9]: 2.8 °C
Compound: Cc1noc2cc(C(=O)Nc3ccc4[nH]c(CN5CCC[C@@H]5C)nc4c3)ccc12
Ratio IC50 (MOLM-13 [7]): 2

inhibition [2]: 100%
inhibition [3]: 100%
IC50 (Protein ENL [4]): 28.2 nM
Compound: C[C@H]1CCCN1Cc1nc2cc(NC(=O)c3ccc4c(cnn4CCN)c3)ccc2[nH]1

inhibition [2]: 86.2%
inhibition [3]: 99%
IC50 (Protein ENL [4]): 19.2 nM
Compound: C[C@H]1CCCN1Cc1nc2cc(NC(=O)c3ccc4c(cnn4CCNC(=O)c4ccccc4)c3)ccc2[nH]1

inhibition [2]: 56%
inhibition [3]: 99.1%
IC50 (Protein ENL [4]): 37.9 nM
Compound: C[C@H]1CCCN1Cc1nc2cc(NC(=O)c3ccc4nn(CCNC(=O)OC(C)(C)C)cc4c3)ccc2[nH]1

IC50 (MOLM-13 [1]): 39600 nM
ΔTm [5]: 3.5 °C
ΔTm [6]: 0.8 °C
inhibition [2]: 98.3%
ΔTm [8]: 2 °C
inhibition [3]: 99.9%
IC50 (Protein ENL [4]): 14.5 nM
ΔTm [9]: 1.3 °C
Compound: C[C@H]1CCCN1Cc1nc2cc(NC(=O)c3ccc4c(cnn4CCN4CCOCC4)c3)ccc2[nH]1
Ratio IC50 (MOLM-13 [7]): 2

inhibition [2]: 82.4%
inhibition [3]: 99.7%
IC50 (Protein ENL [4]): 36.7 nM
Compound: CCn1cc2cc(C(=O)Nc3ccc4[nH]c(CN5CCC[C@@H]5C)nc4c3)ccc2n1

Kd (Protein ENL [10]): 14100 nM
Compound: C[C@@H]1NC(=O)[C@H]([C@H](C)O)NC(=O)[C@@H](NC(=O)OCc2ccccc2)CCCCNC(=N)NCCC[C@H](C(=O)N[C@@H](CCCCNC(=O)c2cnco2)C(N)=O)NC1=O

inhibition [2]: 84.1%
inhibition [3]: 98.4%
IC50 (Protein ENL [4]): 17.2 nM
Compound: C[C@H]1CCCN1Cc1nc2cc(NC(=O)c3ccc4nn(CCN)cc4c3)ccc2[nH]1

inhibition [2]: 85.4%
inhibition [3]: 96.5%
IC50 (Protein ENL [4]): 72.2 nM
Compound: C[C@H]1CCCN1Cc1nc2cc(NC(=O)c3ccc4c5ccccc5n(C)c4c3)ccc2[nH]1

inhibition [2]: 86.8%
inhibition [3]: 99.6%
IC50 (Protein ENL [4]): 77 nM
Compound: C[C@H]1CCCN1Cc1nc2cc(NC(=O)c3ccc4nn(C)cc4c3)ccc2[nH]1

IC50 (Protein ENL [11]): 1600 nM
Kd (Protein ENL [12]): 754 nM
Compound: COC(=O)c1ccc(C(=O)Nc2ccc3[nH]c(CN4CCCCC4)nc3c2)cc1

Tmax [14]: 0.5 h
MRT inf [15]: 5.5 h
IC50 (MOLM-13 [1]): 8300 nM
ΔTm [5]: 5.5 °C
ΔTm [6]: 1.9 °C
Kd (Protein ENL [16]): 17 nM
inhibition [2]: 99.6%
Activity [18]: inactive
Cmax [19]: 71.8 ng/mL
AUC(0-inf) [20]: 272 ng·h/mL
ΔTm [8]: 4.3 °C
IC50 (MV4-11): 4800 nM
inhibition [3]: 100%
IC50 (Protein ENL [4]): 15.4 nM
AUC(0-t) [22]: 257 ng·h/mL
half-life [23]: 5.2 h
ΔTm [9]: 3.3 °C
Activity [25]: inactive
Compound: C[C@H]1CCCN1Cc1nc2cc(NC(=O)c3ccc4c(c3)c3ccccc3c(=O)n4C)ccc2[nH]1
fold change (FC) [13]: <2.5
Ratio IC50 (MOLM-13 [7]): 9
Activity [17]: Non-Toxic
Activity [21]: 50%
Activity (MRC5): Non-Toxic
fold change (FC) [24]: >5
